Assay results: the METLIN SMRT retention time set (Domingo-Almenara et al. 2019)

Test: gradient 5% acetonitrile 3 min, to 50% in 2 min, to 85% in 15 min, held 3 min, 100 µL/min
Settings: column: Zorbax Extend-C18 2.1 x 50 mm; eluents: water / acetonitrile, 0.1% formic acid
Summary of the method: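 Data were gathered over 3 months by HPLC coupled to a quadrupole time-of-flight mass spectrometer, operated in positive and negative ionization mode. Mixtures of ~100 pure standards ran on a Zorbax Extend-C18 column (2.1 × 50 mm, 1.8 μm) at 100 μL/min, with water and acetonitrile each containing 0.1% formic acid and dead and dwell volumes of 40 μL and 900 μL. Retention time was read from adduct peaks picked by computer and checked manually.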
COc1cc(CNS(=O)(=O)c2cn(C(C)C)c3ncccc23)cc(OC)c1 gave an RP-LC retention time of 859 s.
CCCN1C(=O)C2(c3cc(Br)ccc31)c1[nH]c3ccccc3c1CCN2C(C)=O (configuration not stated) showed an RP-LC retention time of 924 s.
In the case of O=C1NCCCn2cc(S(=O)(=O)Nc3ccccc3F)cc21, the RP-LC retention time was 633 s.
Molecule CC(C)CC(NC(=O)Cc1cccs1)C(=O)Nc1nc2ccccc2[nH]1 (configuration not stated) has an RP-LC retention time of 716 s.
In the case of COc1ccc(CN2C(=O)COC[C@H]2C(=O)NCC2CC2)c(OC)c1, the RP-LC retention time was 696 s.
Molecule COc1ccccc1CNC(=O)c1ccc2ncnc(N3CCCC3)c2c1 has an RP-LC retention time of 640 s.
Molecule CCOc1ccc(S(=O)(=O)N2CCCC(C(=O)N3CCN(c4ccccc4)CC3)C2)cc1 (configuration not stated) has an RP-LC retention time of 1020 s.
With O=C(NCCc1c[nH]c2ccccc12)C(=O)Nc1ccc2c(c1)OCCO2 the RP-LC retention time was 825 s.
For COc1cn(CC(=O)Nc2cccc([N+](=O)[O-])c2)c(CN2CCC(C)CC2)cc1=O, the RP-LC retention time was 567 s.
Molecule CCOc1ccc(-c2csc(NC(=O)CCCc3nc(-c4ccccc4Cl)no3)n2)cc1 has an RP-LC retention time of 1160 s.
Molecule COc1ccc(NC(=O)N2CCC(CC(=O)N3CCCCC3)CC2)cc1 has an RP-LC retention time of 706 s.
For CCN(CC)S(=O)(=O)c1ccc2c(c1)cc(C(=O)NCCc1c[nH]c3ccccc13)n2C, the RP-LC retention time was 1010 s.
In the case of O=C(c1cn2ccccc2n1)N1CCN(c2cccc(Cl)c2)CC1, the RP-LC retention time was 718 s.
CCc1noc([C@@H]2CC(F)(F)CN2C(=O)c2ccoc2)n1 showed an RP-LC retention time of 757 s.
Cc1ccc(NC(=O)N2CCCC2c2nncn2C2CCCC2)c(C)c1 (configuration not stated) gave an RP-LC retention time of 692 s.
Molecule O=C(Cn1cnc2c(nc3n2CCCCC3)c1=O)N1CCN(C2CCCCC2)CC1 has an RP-LC retention time of 585 s.
CCCN(C(=O)Nc1ccccc1[N+](=O)[O-])c1nc(-c2ccccc2)cs1 gave an RP-LC retention time of 1400 s.
Cc1nc(CNC(=O)C2CCN(C(=O)Nc3ccccc3Br)CC2)cs1 showed an RP-LC retention time of 655 s.
Molecule COc1cc2nccc(Oc3ccc(NC(=O)NC4CC4)c(Cl)c3)c2cc1C(N)=O has an RP-LC retention time of 633 s.
Molecule COCCNCc1c(C(=O)O)c(C)n(Cc2ccc(Cl)cc2)c1C has an RP-LC retention time of 704 s.
In the case of Cn1cc(C(=O)NCCC2=CCCCC2)c2nn(-c3ccccc3)c(=O)c-2c1, the RP-LC retention time was 991 s.
For CC(C)c1ccc(NC(=O)CN2C(=O)C3CCCCN3c3ccc(S(=O)(=O)N(C)C)cc32)cc1 (configuration not stated), the RP-LC retention time was 955 s.
Work on CCc1nc(-c2cc(S(=O)(=O)N3CCC(C(=O)N4CCCCCC4)CC3)c(C)s2)no1 yielded an RP-LC retention time of 1030 s.
For Cc1ccccc1C(=O)NCCCn1cccc1, the RP-LC retention time was 762 s.
In the case of CC1CCN(S(=O)(=O)c2ccc(Cl)c(-c3nnc(-c4ccccc4)o3)c2)CC1, the RP-LC retention time was 1250 s.
Molecule Cc1cccc(NC(=O)C2CCN(S(C)(=O)=O)c3cc(C)ccc3O2)c1 (configuration not stated) has an RP-LC retention time of 943 s.
With Cc1ccc(NC(=O)N2CC(c3nc(C)no3)C3(CCOCC3)C2)c(C)c1 (configuration not stated) the RP-LC retention time was 731 s.
COc1ccc(CC(=O)NCC2(CO)CC2)cc1OC gave an RP-LC retention time of 582 s.
Work on Cn1c(C2CCN(C(=O)c3ccc(Cl)cc3)C2)nc2ccncc21 (configuration not stated) yielded an RP-LC retention time of 540 s.
Cc1cc(=O)n(CC(=O)Nc2cc(F)ccc2C)c(N2CCCC2)n1 showed an RP-LC retention time of 635 s.
Molecule Cc1ccc(-c2nc(-c3ccc4c(c3)ncn4CCN3CCOCC3)no2)cc1F has an RP-LC retention time of 689 s.
With Cc1cc(N2CCCCCC2)n2nc(CN3CCN(C(C)C)CC3)nc2n1 the RP-LC retention time was 555 s.
For Cc1nn2c(S(=O)(=O)N3CCCCC3)c(C)nc2s1, the RP-LC retention time was 792 s.
Work on CCCCNC(=O)c1sc2ncn(CC(=O)N3CC(C)CC(C)C3)c(=O)c2c1C (configuration not stated) yielded an RP-LC retention time of 890 s.
For O=C(NCc1cc(-c2ccccc2F)on1)c1ccccc1Br, the RP-LC retention time was 810 s.
CCCOc1ccc(CNC(=O)CN2CCN(Cc3ccc(F)cc3)C2=O)cc1 gave an RP-LC retention time of 903 s.
O=C(Nc1ccc2c(c1)OCCO2)c1coc2ccccc12 showed an RP-LC retention time of 826 s.
CCCCN1CCN(S(=O)(=O)c2cc(-c3nnc(C(C)C)o3)co2)CC1 gave an RP-LC retention time of 652 s.
Cc1cc(C)cc(NC(=O)N2C[C@@H](F)C[C@H]2C(=O)N2CCc3ccccc3C2)c1 showed an RP-LC retention time of 879 s.
With O=C(c1cccc2[nH]cc(CN3CCCC3)c12)N1CCN(c2ccccc2)CC1 the RP-LC retention time was 706 s.
Work on Cc1ccc(OCc2nn3c(-c4ccoc4C)nnc3s2)cc1C yielded an RP-LC retention time of 1090 s.
Molecule Cc1cc(N2CCCC2)n2nc(CN3CCCC(C)C3)nc2n1 (configuration not stated) has an RP-LC retention time of 571 s.
For COc1cc(NC(=O)C2CCCN(c3cc(=O)n(C)c(=O)n3C)C2)cc(OC)c1OC (configuration not stated), the RP-LC retention time was 854 s.
For COCCCn1c(=O)c2ccccc2n(Cc2nc(-c3ccc(OC)cc3)no2)c1=O, the RP-LC retention time was 968 s.
Cc1ccc(C)c(C(=O)N2CCCC(c3nc(CNC(=O)C4CCC4)cs3)C2)c1 (configuration not stated) gave an RP-LC retention time of 748 s.
Molecule COc1ccccc1C(=O)NC1CCN(c2cc(C)cc(C)c2)C1=O (configuration not stated) has an RP-LC retention time of 928 s.
Molecule COC(=O)c1sc2ccccc2c1NC(=O)c1cc(C)n(C)n1 has an RP-LC retention time of 886 s.
Work on CCNC(=O)C[C@@H]1N=C(c2ccc(Cl)cc2)c2cc(OC)ccc2-n2c(C)nnc21 yielded an RP-LC retention time of 797 s.
Molecule COc1ccc(-c2c(C)noc2NC(C)=O)cc1S(=O)(=O)Nc1ccc(C)cc1Cl has an RP-LC retention time of 837 s.
Cc1nc(-c2noc(-c3ccccc3)n2)cn1CC(=O)Nc1cccc(Cl)c1 gave an RP-LC retention time of 916 s.
For Cc1ccc(-n2nc(C)c3sc(N4CCCC(C(=O)NC5CCCc6ccccc65)C4)nc32)cc1 (configuration not stated), the RP-LC retention time was 1300 s.
Molecule CCCNC(=O)C1CCN(c2nc3ccc(-c4cccs4)nc3s2)CC1 has an RP-LC retention time of 872 s.
Molecule Cc1ccn2cc(-c3ccc(NC(=O)c4ccc(C(F)(F)F)cc4)cc3)nc2n1 has an RP-LC retention time of 739 s.
In the case of NC(=O)C1CCN(c2cc(-c3nc(-c4ccccc4)no3)c3ccccc3n2)CC1, the RP-LC retention time was 765 s.
In the case of O=C1NCCCCCN(C(=O)c2ccc(Cn3cncn3)o2)[C@H]2CCC[C@@H]12, the RP-LC retention time was 608 s.
Work on Cc1nc(-c2ccc(N3CCN(C(=O)c4ccoc4)CC3)nc2)sc1C yielded an RP-LC retention time of 738 s.
Molecule O=C(c1ccsc1)N1CCCn2cc(-c3ccccc3)nc21 has an RP-LC retention time of 640 s.
Work on Cc1csc(-c2csc(S(=O)(=O)N3CCN(c4ccccc4)CC3)c2)n1 yielded an RP-LC retention time of 1090 s.
With Cc1cc(N2CCN(S(=O)(=O)c3ccc(F)cc3F)CC2)nc(NC2CCCCC2)n1 the RP-LC retention time was 805 s.
COc1cccc(NC(=O)N2CCC3(CC2)NC(=O)c2ccccc2O3)c1 showed an RP-LC retention time of 745 s.
CN(Cc1ccccc1)Cc1nc(-c2ccc(N3CCSCC3)nc2)no1 gave an RP-LC retention time of 837 s.
Cc1cc(C)cc(NC(=O)Cn2c(N3CCOCC3)nc(C)cc2=O)c1 showed an RP-LC retention time of 711 s.
Molecule CC(=O)N1c2ccc(S(=O)(=O)N3CCCCCC3)cc2CC1C(=O)NCc1ccc(C)cc1 (configuration not stated) has an RP-LC retention time of 929 s.
CN(C)C(=O)N1CCc2nn(Cc3ccccc3)c(=O)n2CC1 gave an RP-LC retention time of 649 s.
Work on CCc1cc(-c2csc(S(=O)(=O)Nc3ccc(C(C)C)cc3)c2)on1 yielded an RP-LC retention time of 1100 s.
With CCn1cc(CCNC(=O)NC)c2cccnc21 the RP-LC retention time was 561 s.
Work on COc1ccc(-c2nn(CCCC(=O)N3CCN(c4ccccn4)CC3)c(=O)c3noc(C)c23)cc1 yielded an RP-LC retention time of 636 s.
